Data as given in patent US9718790B2, “Triazine derivative and pharmaceutical composition having an analgesic activity comprising the same” (SHIONOGI & CO., LTD., priority 2010, dated 2017).

How the values were obtained:
[1] = system: partial sciatic nerve ligation model in rats; assay: Analgesic effect in a Seltzer model, Evaluation (1): mechanical allodynia, von Frey filaments; format: in vivo; settings: rat, oral single administration, at 3 hours, read-out: analgesic effect, percent reversal of mechanical allodynia
Description: Rats were anaesthetized using isoflurane/O2 inhalation anaesthesia. After induction of anesthesia, the left thigh was shaved. An incision was made in the skin just below the hip bone. The muscle was bluntly dissected to expose the sciatic nerve. One third (⅓) to one half (½) of the sciatic nerve thickness was tightly ligated and the wound was closed. The right thigh is used as a sham-operated control. The right thigh undergoes an identical procedure with the left hind limb, however, the sciatic nerve is not manipulated or ligated.
Two weeks after nerve ligation, the effect on mechanical allodynia was assessed using a series of von Frey filaments. For habituation, the rats were placed into a plastic cage on a wire mesh bottom. The mechanical sensitivity (mechanical threshold) of the hind paws was estimated with a series of von Frey filaments (0.4-20 g). The measurement of mechanical sensitivity of the right and left hind paws was performed to obtain predose mechanical sensitivity. The rats showing thee threshold change from 0.6 to 2 g (in nerve ligated side) and 8 to 15 g (in sham operated side) were used in the experiments. On the day belone the experiment, the rats were evaluated with a series of von Frey filaments to familiarize them with the test procedure. The adopted animal was administrated with the test compounds. The test compounds were homogenized with mortar and pestle and suspended or diluted in 0.5% Methyl Cellulose to prepare 0.1-2.0 mg/mL/kg suspension and orally administered to rat using a syringe attached with a sonde. Post-dose mechanical sensitivities of the right and left hind paws were measured at approximately 1 to 5 hours after drug administration. Percent reversal of mechanical allodynia for each rat was calculated using the following formula. The analgesic effects of the compounds were compared.

[2] = molecular target: human P2X3 receptor (Homo sapiens (Human), UniProt P56373); assay: Evaluation of human P2X3 receptor inhibitory activity (Fluo-3 calcium fluorescence, FDSS 3000, ATP stimulation); format: cell-based;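 further: stimulus was 50 nM ATP with fluorescence followed for 3 min, and the response per well was peak post-ATP fluorescence divided by the reading at measurement start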
[3] = human P2X3 receptor, Test Example 1
[4] = C6BU-1 cells stably expressing human P2X3 receptor, Fluo-3 fluorescence, FDSS 3000
[5] = C6BU-1 cells stably expressing human P2X3 receptor

Chain of human P2X3 receptor (P56373 whole entry): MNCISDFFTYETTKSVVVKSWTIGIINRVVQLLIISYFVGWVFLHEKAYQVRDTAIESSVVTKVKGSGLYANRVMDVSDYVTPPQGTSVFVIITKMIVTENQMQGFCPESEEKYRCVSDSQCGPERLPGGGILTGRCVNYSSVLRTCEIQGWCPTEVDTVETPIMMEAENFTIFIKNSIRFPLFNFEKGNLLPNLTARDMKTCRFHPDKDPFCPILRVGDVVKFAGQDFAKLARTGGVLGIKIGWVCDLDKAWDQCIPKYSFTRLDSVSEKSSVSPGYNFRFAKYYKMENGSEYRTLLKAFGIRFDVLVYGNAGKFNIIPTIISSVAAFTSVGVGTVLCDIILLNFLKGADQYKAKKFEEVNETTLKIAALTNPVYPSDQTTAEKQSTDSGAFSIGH

SMILES | IC50 [2, 3] | further results
Cc1cc(/N=c2\[nH]c(=O)n([C@@H](C)[C@@H](C)C(=O)O)c(=O)n2Cc2ccc(Cl)cc2)ccc1OC(C)C [Compound I-0826] | 19 nM | inhibition in vivo at 3 mg/kg [1]: > 30%
Cc1ccc(Cn2c(=O)n([C@@H](C)[C@@H](C)C(=O)O)c(=O)[nH]/c2=N\c2ccc(OC(C)C)c(Cl)c2)cc1 [Compound I-0931] |  | inhibition in vivo at 3 mg/kg [1]: > 30%; IC50 [2, 4]: 12 nM
Cc1ccc(Cn2c(=O)n(C[C@H](C)C(=O)O)c(=O)[nH]/c2=N\c2ccc(CC(C)C)c(Cl)c2)cc1 [Compound I-1373] |  | inhibition in vivo at 3 mg/kg [1]: > 30%; IC50 [2, 5]: 4 nM
Cc1cc(Oc2ccc(/N=c3\[nH]c(=O)n(C[C@H](O)CO)c(=O)n3Cc3ccc(Cl)cc3)cc2)no1 [Compound I-1757] |  | inhibition in vivo at 3 mg/kg [1]: > 30%; IC50 [2, 4]: 12 nM
O=c1[nH]/c(=N\c2ccc(OCC3CC3)cc2)n(Cc2ccc(Cl)cc2)c(=O)n1CC(CO)CO [Compound I-1849] |  | inhibition in vivo at 3 mg/kg [1]: > 30%; IC50 [2, 4]: 7 nM
CCn1c(=O)[nH]/c(=N\c2ccc(Oc3ncc(C(=O)O)s3)cc2)n(Cc2ccc(Cl)cc2)c1=O [Compound I-2153] |  | inhibition in vivo at 3 mg/kg [1]: > 30%; IC50 [2, 5]: 6 nM
Cn1c(=O)[nH]/c(=N\c2ccc(Oc3cccc(C(=O)O)n3)cc2)n(Cc2ccc(Cl)cc2)c1=O [Compound I-2272] | 8 nM | inhibition in vivo at 3 mg/kg [1]: > 30%
CCn1c(=O)[nH]/c(=N\c2ccc(Oc3ccc(C(N)=O)nn3)cc2)n(Cc2ccc(Cl)cc2)c1=O [Compound I-2283] | < 4 nM | inhibition in vivo at 3 mg/kg [1]: > 30%
O=c1[nH]/c(=N\c2ccc(Oc3ccon3)cc2)n(Cc2ccc(Cl)cc2)c(=O)n1CCO [Compound I-2292] | 12 nM | inhibition in vivo at 3 mg/kg [1]: > 30%
O=c1[nH]/c(=N\c2ccc(Oc3ccon3)cc2)n(Cc2ccc(Cl)cc2)c(=O)n1C[C@H](O)CO [Compound I-2293] | 6 nM | inhibition in vivo at 3 mg/kg [1]: > 30%
CC(CO)(CO)Cn1c(=O)[nH]/c(=N\c2ccc(Oc3ccon3)cc2)n(Cc2ccc(Cl)cc2)c1=O [Compound I-2369] | 3 nM | inhibition in vivo at 3 mg/kg [1]: > 30%
Cn1c(=O)[nH]/c(=N\c2ccc(Oc3cnc(C#N)cn3)cc2)n(Cc2ccc(Cl)cc2)c1=O [Compound I-2428] | 5 nM | inhibition in vivo at 3 mg/kg [1]: > 30%
O=C(O)Cn1c(=O)[nH]/c(=N\c2ccc(Oc3ccnnc3)cc2)n(Cc2ccc(Cl)cc2)c1=O [Compound I-2665] | 85 nM | 
COC(=O)CCn1c(=O)[nH]/c(=N\c2ccc(Oc3cccc(C#N)n3)cc2)n(Cc2ccc(Cl)cc2)c1=O [Compound I-2666] | 2 nM | 
N#Cc1cccc(Oc2ccc(/N=c3\[nH]c(=O)n(CCC(=O)O)c(=O)n3Cc3ccc(Cl)cc3)cc2)n1 [Compound I-2667] | 10 nM | 
Cc1ccc(Cn2c(=O)n(CCC(=O)O)c(=O)[nH]/c2=N\c2ccc(Oc3cc(C(=O)O)ccn3)cc2)cc1 [Compound I-2671] | 36 nM | 
CC(C)(O)Cn1c(=O)[nH]/c(=N\c2ccc(Oc3ccon3)cc2)n(Cc2ccc(Cl)cc2)c1=O [Compound I-2672] | 11 nM | 
CNC(=O)Cn1c(=O)[nH]/c(=N\c2ccc(Oc3ncns3)cc2)n(Cc2ccc(Cl)cc2)c1=O [Compound I-2673] | 7 nM | 
O=C(Cn1c(=O)[nH]/c(=N\c2ccc(Oc3ncns3)cc2)n(Cc2ccc(Cl)cc2)c1=O)NCCO [Compound I-2674] | 5 nM | 
NC(=O)Cn1c(=O)[nH]/c(=N\c2ccc(Oc3cnsn3)cc2)n(Cc2ccc(Cl)cc2)c1=O [Compound I-2675] | 13 nM | 
CNC(=O)Cn1c(=O)[nH]/c(=N\c2ccc(Oc3cnsn3)cc2)n(Cc2ccc(Cl)cc2)c1=O [Compound I-2676] | 13 nM | 
O=C(Cn1c(=O)[nH]/c(=N\c2ccc(Oc3cnsn3)cc2)n(Cc2ccc(Cl)cc2)c1=O)NCCO [Compound I-2677] | 7 nM | 
Cc1nsc(Oc2ccc(/N=c3\[nH]c(=O)n(CC(=O)NCCO)c(=O)n3Cc3ccc(Cl)cc3)cc2)n1 [Compound I-2678] | 3 nM | 
O=C(Cn1c(=O)[nH]/c(=N\c2ccc(Oc3cccc(F)n3)cc2)n(Cc2ccc(Cl)cc2)c1=O)NCCO [Compound I-2679] | 5 nM | 
O=C(Cn1c(=O)[nH]/c(=N\c2ccc(Oc3ccon3)cc2)n(Cc2ccc(Cl)cc2)c1=O)NCCO [Compound I-2680] | 12 nM | 
O=C(Cn1c(=O)[nH]/c(=N\c2ccc(Oc3ccon3)cc2)n(Cc2ccc(Cl)cc2)c1=O)NCC(F)(F)F [Compound I-2681] | 4 nM | 
COC(=O)CCn1c(=O)[nH]/c(=N\c2ccc(Oc3cccc(C(N)=O)n3)cc2)n(Cc2ccc(C)cc2)c1=O [Compound I-2682] | 2 nM | 

SMILES | IC50 [2, 3] | further results
Cc1ccc(Cn2c(=O)n(CCC(=O)O)c(=O)[nH]/c2=N\c2ccc(Oc3cccc(C(N)=O)n3)cc2)cc1 [Compound I-2683] | 12 nM | 
COC(=O)CCn1c(=O)[nH]/c(=N\c2ccc(Oc3cccc(C(N)=O)n3)cc2)n(Cc2ccc(Cl)cc2)c1=O [Compound I-2684] | 2 nM | 
O=c1[nH]/c(=N\c2ccc(Oc3cccc(O)n3)cc2)n(Cc2ccc(Cl)cc2)c(=O)n1CC(CO)CO [Compound I-2685] | 12 nM | 
NC(=O)Cn1c(=O)[nH]/c(=N\c2ccc(Oc3ncccn3)cc2)n(Cc2ccc(Cl)cc2)c1=O [Compound I-2686] | 36 nM | 
CNC(=O)Cn1c(=O)[nH]/c(=N\c2ccc(Oc3ncccn3)cc2)n(Cc2ccc(Cl)cc2)c1=O [Compound I-2687] | 35 nM | 
O=C(Cn1c(=O)[nH]/c(=N\c2ccc(Oc3ncccn3)cc2)n(Cc2ccc(Cl)cc2)c1=O)NCCO [Compound I-2688] | 18 nM | 
NC(=O)Cn1c(=O)[nH]/c(=N\c2ccc(Oc3cccnn3)cc2)n(Cc2ccc(Cl)cc2)c1=O [Compound I-2689] | 20 nM | 
CNC(=O)Cn1c(=O)[nH]/c(=N\c2ccc(Oc3cccnn3)cc2)n(Cc2ccc(Cl)cc2)c1=O [Compound I-2690] | 18 nM | 
O=C(Cn1c(=O)[nH]/c(=N\c2ccc(Oc3cccnn3)cc2)n(Cc2ccc(Cl)cc2)c1=O)NCCO [Compound I-2691] | 8 nM | 
O=c1[nH]/c(=N\c2ccc(Oc3cccnn3)cc2)n(Cc2ccc(Cl)cc2)c(=O)n1CC(CO)CO [Compound I-2692] | 8 nM | 
NC(=O)c1cccc(Oc2ccc(/N=c3\[nH]c(=O)n(CCC(=O)O)c(=O)n3Cc3ccc(Cl)cc3)cc2)n1 [Compound I-2693] | 12 nM | 
NC(=O)NC(=O)Cn1c(=O)[nH]/c(=N\c2ccc(Oc3ccon3)cc2)n(Cc2ccc(Cl)cc2)c1=O [Compound I-2694] | 3 nM | 
NC(=O)Cn1c(=O)[nH]/c(=N\c2ccc(Oc3ccnnc3)cc2)n(Cc2ccc(Cl)cc2)c1=O [Compound I-2695] | 10 nM | 
CNC(=O)Cn1c(=O)[nH]/c(=N\c2ccc(Oc3ccnnc3)cc2)n(Cc2ccc(Cl)cc2)c1=O [Compound I-2696] | 8 nM | 
Cc1nsc(Oc2ccc(/N=c3\[nH]c(=O)n(CCC(=O)O)c(=O)n3Cc3ccc(Cl)cc3)cc2)n1 [Compound I-2697] | 19 nM | 
O=C(O)CCn1c(=O)[nH]/c(=N\c2ccc(Oc3ncns3)cc2)n(Cc2ccc(Cl)cc2)c1=O [Compound I-2698] | 25 nM | 
CCn1c(=O)nc(Nc2ccc(Oc3ccc(C(=O)O)nn3)cc2)n(Cc2ccc(F)cc2)c1=O [Compound I-2699] | 134 nM | 
CCn1c(=O)[nH]/c(=N\c2ccc(Oc3ccc(C(=O)OC)cn3)cc2)n(C[C@H]2CC[C@H](C)CC2)c1=O [Compound I-2700] | 353 nM | 
CCn1c(=O)[nH]/c(=N\c2ccc(Oc3ccc(C(=O)OC)nn3)cc2)n(C[C@H]2CC[C@H](C)CC2)c1=O [Compound I-2701] | 1 nM | 
O=c1[nH]/c(=N\c2ccc(Oc3ccnc(Cl)c3)cc2)n(Cc2ccc(Cl)cc2)c(=O)n1CC(CO)CO [Compound I-2704] | 4 nM | 
O=c1[nH]/c(=N\c2ccc(Oc3ccnc(F)c3)cc2)n(Cc2ccc(Cl)cc2)c(=O)n1CC(CO)CO [Compound I-2705] | 3 nM | 
O=c1[nH]/c(=N\c2ccc(Oc3ncccc3F)cc2)n(Cc2ccc(Cl)cc2)c(=O)n1CC(CO)CO [Compound I-2706] | 6 nM | 
Cc1nsc(Oc2ccc(/N=c3\[nH]c(=O)n(C[C@H](O)CO)c(=O)n3Cc3ccc(F)cc3)cc2F)n1 [Compound I-2707] | 7 nM | 
Cc1nsc(Oc2ccc(/N=c3\[nH]c(=O)n(C[C@H](O)CO)c(=O)n3Cc3ccc(Cl)cc3)cc2F)n1 [Compound I-2708] | 2 nM | 
Cc1cncc(Oc2ccc(/N=c3\[nH]c(=O)n(CC(CO)CO)c(=O)n3Cc3ccc(Cl)cc3)cc2)n1 [Compound I-2709] | 6 nM | 
O=c1[nH]/c(=N\c2ccc(Oc3cnccn3)cc2)n(Cc2ccc(Cl)cc2)c(=O)n1CC(CO)CO [Compound I-2710] | 6 nM | 
